{"source": "patent US11684614B2", "about": "“Formulations of hydroxypyridonate actinide/lanthanide decorporation agents” (priority 2017, dated 2023)", "assay": "Repeated-treatment efficacy for removing an intravenous dose of 238Pu (excretion, tissue retention, clinical observations), female and male arms;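 for % Recovered Dose - ART: ART is abdominal tissue remainder with GI tract reproductive organs spleen bladder fat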", "type": "in vivo, Swiss-Webster mice", "procedure": "The objective of this study was to characterize the efficacy of 3,4,3-L1(1,2-HOPO) at enhancing elimination from an internal plutonium burden in female and male Swiss-Webster mice administered a soluble citrate complex of ^238Pu and treated multiple times, starting at 24 hours after the exposure. Efficacy was evaluated by comparing the tissue contents, urinary and fecal excretions of ^238Pu in treated animals versus untreated animals.\nThe medical countermeasure 3,4,3-L1(1,2-HOPO) was administered parenterally (ip) or orally (po) via consecutive injections or gavages (six daily or twelve twice daily) starting at 24 hours post contamination at the following four selected doses: 30 μmol/kg ip, 150 μmol/kg po, 300 μmol/kg po, and 600 μmol/kg po (equivalent to respective approximate human doses range of […], using the accepted conversion system of mouse doses into human equivalent doses—HED—based on body surface area). Oral doses also included the permeability enhancer selected during formulation development work.\n• Challenge isotope: ^238Pu • Challenge dose: 25 nCi (i.e., approximately 0.8 μCi/kg) • Route of contamination: Intravenous (iv) tail-vein • Route of treatment: Intraperitoneal Injection (ip) or Oral (po) • Frequency of treatment: Multiple (once- or twice-daily for 6 days) doses, starting 24 hr postcontamination • Treatment dose calculation: Dose calculations (mg/kg or μmol/kg) for the decorporation agent were based on the individual body weight measured after contamination. • Study Duration: 11 days, in-life\nc. […] Test article and control dose formulations were prepared within 1 day of dose administration, by weighing out the appropriate amount of test article, dispersing in vehicle. For ip solutions, the test article was used alone, while for oral suspensions, a mixture of test article and excipient (90:10, w:w) was used. The pH was adjusted to 7.0-7.4 for ip administration and 5.0-5.5 for oral administration with sterile NaOH. Dose formulations were prepared at room temperature and filter-sterilized. • Storage: 2-8° C.; refrigerated; protected from light. • Characterization: The concentration of each test article formulation was verified by high-performance liquid chromatography-mass spectrometry. • Test Article Handling: Test, reference, and control article formulations were handled with the use of eye protection, gloves, and a protective laboratory coat. • Correct Dose Assurance: The test article was weighed with calibrated balances. The administration of each dose formulation was properly documented, and the amount administered to each animal recorded.\ne. Experimental Procedures (In-Life Evaluations and Euthanasia) • Contamination: Single administration by intravenous (iv) tail-vein injection (0.2 mL injection volume) under isoflurane anesthesia. Three standard 0.2 mL injections were performed into polyethylene bottles and pre-loaded with aliquots of concentrated nitric acid on each injection day. Six female and six male mice were culled for necropsy 1 hr post-contamination and were used as standards. A11 standards were processed and counted together with the final samples to allow verification of the contamination dose. • Dose Administration: Single administration by intraperitoneal injection (ip) or oral gavage (po) under isoflurane anesthesia. • Mortality/Morbidity: Assessed at least once daily. • Clinical Observations: Recorded once daily (4 hr post-dose on day of treatment), or more often as clinical signs warranted. […]", "key": {"[1]": {"settings": "female animals, D-7 necropsy, individual animals, listed as 3,4,3-LI(1,2-HOPO)"}, "[2]": {"settings": "female animals, D-11 necropsy, individual animals, listed as 3,4,3-LI(1,2-HOPO)"}, "[3]": {"settings": "male animals, Day 7 necropsy, animal group B, listed as 3,4,3-LI(1,2-HOPO)"}}, "note": "“And” between values parts separate entries of the source, which are not always exact repeats. Equal entries are not always repeated."}
{"smiles": "O=C(NCCCN(CCCCN(CCCNC(=O)c1cccc(=O)n1O)C(=O)c1cccc(=O)n1O)C(=O)c1cccc(=O)n1O)c1cccc(=O)n1O", "note": "[3,4,3-L1(1,2-HOPO)]", "values": [{"measurement": "% Recovered Dose-Female Animals-Urine per Day-Day 11 Necropsy", "setting": "animal group M, day 11, female mice, listed as 3,4,3-LI(1,2-HOPO)", "value": "0.44% and 0.82% and 0.63% and 0.58% and 0.53% and 1.12% and 0.91% and 0.93%"}, {"measurement": "238Pu excretion path", "setting": "female and male mice", "value": "predominantly through feces"}, {"measurement": "adverse effect", "setting": "female and male mice, parenteral or oral, all dose levels", "value": "No adverse effect"}, {"measurement": "% Recovered Dose - Kidney", "setting": "female animals, D-7 necropsy, individual animals (ID = group letter + number), dose/regimen of group not given, listed as 3,4,3-LI(1,2-HOPO)", "value": "0.27% (2×) and 0.15% and 0.24% (2×) and 0.17% and 0.31% and 0.14% and 0.09% and 0.28% (2×) and 0.43% and 0.12% and 0.21% and 0.22% (2×)"}, {"measurement": "% Recovered Dose - ART", "setting": "[1]", "value": "1.01% and 1.36% and 1.12% (2×) and 1.30% and 1.21% and 1.29% and 1.37% and 1.20% and 0.98% (2×) and 1.39% and 1.24% (2×) and 1.16% and 1.59%"}, {"measurement": "% Recovered Dose - Combined Body", "setting": "[1]", "value": "34.79% and 38.75% and 40.32% and 37.43% and 36.37% and 39.78% and 31.50% and 26.07% and 36.12% and 35.98% and 41.72% and 33.15% and 35.58% and 25.26% and 33.24% and 36.43%"}, {"measurement": "% Recovered Dose - Combined Excreta", "setting": "[1]", "value": "65.21% and 61.25% and 59.68% and 62.57% and 63.63% and 60.22% and 68.50% and 73.93% and 63.88% and 64.02% and 58.28% and 66.85% and 64.42% and 74.74% and 66.76% and 63.57%"}, {"measurement": "% Recovered Dose - Liver", "setting": "[1]", "value": "8.04% and 11.52% and 14.05% and 17.71% and 5.50% and 9.28% and 7.15% and 5.47% and 15.03% and 5.40% and 15.12% and 5.35% and 15.19% and 6.77% and 11.56% and 16.40%"}, {"measurement": "% Recovered Dose - SKEL", "setting": "[1]", "value": "23.83% and 24.03% and 23.40% and 16.40% and 28.04% and 26.98% and 21.55% and 17.57% and 18.05% and 27.21% and 23.15% and 24.86% and 17.48% and 15.65% and 19.07% and 16.03%"}, {"measurement": "% Recovered Dose - SOFT", "setting": "[1]", "value": "1.63% (2×) and 1.69% and 1.50% and 1.75% and 1.54% and 2.00% and 1.36% and 1.57% and 1.61% and 2.12% and 1.58% and 1.55% and 1.38% and 1.41% and 2.13%"}, {"measurement": "% Recovered Dose - Total Feces", "setting": "[1]", "value": "37.37% and 25.66% and 41.03% and 28.59% and 40.61% and 26.74% and 36.25% and 39.09% and 25.39% and 34.86% and 39.63% and 37.46% and 28.91% and 37.33% and 32.34% and 24.62%"}, {"measurement": "% Recovered Dose - Total Urine", "setting": "[1]", "value": "27.84% and 35.60% and 18.65% (2×) and 33.98% and 23.02% and 33.48% and 32.25% and 34.83% and 38.49% and 29.16% and 29.39% and 35.51% and 37.41% and 34.43% and 38.95%"}, {"measurement": "% Recovered Dose - Combined Body", "setting": "[2]", "value": "17.98% and 75.50% and 20.85% and 19.27% and 21.23% and 20.95% and 24.13% and 19.99% and 25.13% and 24.87% and 27.98% and 26.74% and 30.36% and 31.29% and 29.30% and 29.18% and 27.61% and 23.71% and 21.16% and 25.90% and 28.33% and 29.52% and 30.59% and 27.44%"}, {"measurement": "% Recovered Dose - Combined Excreta", "setting": "[2]", "value": "82.02% and 24.50% and 79.15% and 80.73% and 78.77% and 79.05% and 75.87% and 80.01% and 74.87% and 75.13% and 72.02% and 73.26% and 69.64% and 68.71% and 70.70% and 70.82% and 72.39% and 76.29% and 78.84% and 74.10% and 71.67% and 70.48% and 69.41% and 72.56%"}, {"measurement": "% Recovered Dose - GI Tract", "setting": "[2]", "value": "0.65% and 1.84% and 0.77% and 0.48% and 0.55% and 0.52% and 0.62% and 0.54% and 0.97% and 0.80% (2×) and 1.10% and 0.99% and 0.95% and 1.50% and 0.96% and 0.87% and 0.70% and 0.91% and 0.68% and 0.50% and 1.19% and 0.81% and 1.03%"}, {"measurement": "% Recovered Dose - Kidney", "setting": "[2]", "value": "0.09% and 1.35% and 0.13% (2×) and 0.08% (2×) and 0.18% and 0.14% (4×) and 0.05% and 0.11% (2×) and 0.25% and 0.16% (2×) and 0.26% and 0.12% and 0.20% (2×) and 0.15% and 0.10% (2×)"}, {"measurement": "% Recovered Dose - Liver", "setting": "[2]", "value": "4.74% and 36.77% and 4.16% and 1.79% and 1.96% and 2.48% and 3.25% and 1.16% and 8.54% and 3.78% and 4.98% and 7.97% and 5.01% and 6.46% and 4.53% and 6.86% and 4.50% and 3.03% and 5.22% and 3.96% and 5.73% and 8.43% and 7.92% and 6.01%"}, {"measurement": "% Recovered Dose - Soft Tissue", "setting": "[2]", "value": "1.29% (2×) and 3.31% and 0.99% and 1.94% (2×) and 1.49% and 1.62% and 1.17% and 1.66% and 1.55% and 2.66% and 2.10% and 2.26% and 1.73% and 2.18% and 2.32% and 2.21% and 2.05% and 2.16% and 2.59% and 1.56% and 1.48% and 2.11%"}, {"measurement": "% Recovered Dose - Total Bone", "setting": "[2]", "value": "11.21% and 32.22% and 14.80% and 15.63% and 16.61% and 16.38% and 18.50% and 17.05% and 13.83% and 18.64% and 18.99% and 15.53% and 21.88% and 21.46% and 21.52% and 18.92% and 19.89% and 17.79% and 12.72% and 18.57% and 20.43% and 17.82% and 20.28% and 18.12%"}, {"measurement": "% Recovered Dose - Total Feces", "setting": "[2]", "value": "38.27% and 13.76% and 41.57% and 45.81% and 39.56% and 45.73% and 37.01% and 44.68% and 36.23% and 51.20% and 30.57% and 33.16% and 39.74% and 37.31% and 37.09% and 35.70% and 28.28% and 37.36% and 36.24% and 36.31% and 36.22% and 32.51% and 34.94% and 35.74%"}, {"measurement": "% Recovered Dose - Total Urine", "setting": "[2]", "value": "43.75% and 10.74% and 37.58% and 34.92% and 39.21% and 33.32% and 38.85% and 35.33% and 38.64% and 23.93% and 41.45% and 40.10% and 29.89% and 31.40% and 33.61% and 35.12% and 44.11% and 38.93% and 42.60% and 37.79% and 35.45% and 37.97% and 34.47% and 36.82%"}, {"measurement": "% Recovered Dose - Feces per Day - Day 2", "setting": "female animals, Day 7 necropsy, Day 2, listed as 3,4,3-LI(1,2-HOPO)", "value": "13.36% and 8.81% and 9.40%"}, {"measurement": "% Recovered Dose - Feces per Day - Day 3", "setting": "female animals, Day 7 necropsy, Day 3, listed as 3,4,3-LI(1,2-HOPO)", "value": "5.58% and 1.92% and 3.39%"}, {"measurement": "% Recovered Dose - Feces per Day - Day 4", "setting": "female animals, Day 7 necropsy, Day 4, listed as 3,4,3-LI(1,2-HOPO)", "value": "3.61% and 2.93% and 2.98%"}, {"measurement": "% Recovered Dose - Feces per Day - Day 5", "setting": "female animals, Day 7 necropsy, Day 5, listed as 3,4,3-LI(1,2-HOPO)", "value": "2.85% and 2.91% and 2.16%"}, {"measurement": "% Recovered Dose - Feces per Day - Day 6", "setting": "female animals, Day 7 necropsy, Day 6, listed as 3,4,3-LI(1,2-HOPO)", "value": "1.63% and 2.50% and 1.90%"}, {"measurement": "% Recovered Dose - Feces per Day - Day 7", "setting": "female animals, Day 7 necropsy, Day 7, listed as 3,4,3-LI(1,2-HOPO)", "value": "1.39% and 1.95% and 1.75%"}, {"measurement": "increase in total 238Pu excretion compared to the control groups", "setting": "female, 6 daily oral treatments, 600 μmol/kg, 11 days post-contamination", "value": "up to 143%"}, {"measurement": "tissue content of 238Pu compared to saline control group", "setting": "female, all analyzed tissues, all dosing regimens", "value": "large reductions"}, {"measurement": "full body content of 238Pu compared to saline control groups", "setting": "female, all treated groups", "value": "significant reductions"}, {"measurement": "decrease in body burden compared to the control groups", "setting": "female, once-daily oral 600 μmol/kg, 11 days post-contamination", "value": "up to 45%"}, {"measurement": "decorporation efficacy relative to parenteral DTPA", "setting": "female, oral once-daily 300 μmol/kg", "value": "equivalent to that of parenteral treatment with DTPA"}, {"measurement": "238Pu elimination enhancement", "setting": "female, oral twice-daily 150 and 300 μmol/kg or once-daily 300 and 600 μmol/kg, 7 days post-contamination", "value": "significant"}, {"measurement": "% Recovered Dose Urine per Day, Day 1", "setting": "[3]", "value": "20.65% and 15.62% and 19.53% and 17.05%"}, {"measurement": "% Recovered Dose Urine per Day, Day 2", "setting": "[3]", "value": "2.02% and 2.81% and 2.18% and 1.96%"}]}
